The text below walks through data of patent US20230263789A1, “PHARMACEUTICAL COMPOSITION AND PREPARATION METHOD” (JIANGSU KANION PHARMACEUTICAL CO., LTD., priority 2020, published 2023).

Counter-ions that a name gives are not always drawn.

The data set is described as follows: Preliminary test: dissolution of compound A with an acidic regulator. The format is physicochemical. The note with it: with an acidic regulator (citric acid or tartaric acid). An excerpt:
To improve the solubility of insoluble medicines, surfactants, acid-base regulators and the like are mostly used in the prior art. […] However, the granules obtained in the preliminary study process can solve the problem of solubility, but the stability is insufficient. Therefore, how to improve the solubility of the active substance provided by the present invention and ensure the stability has become a difficult point in a medicine technology.

In the case of `CCn1nnc(-c2ccc(OCCC(C)(C)CCN3CCN(c4ccnc(N)c4)S3(=O)=O)nc2)n1` [compound A, 2-(2-aminopyridine-4-yl)-5-(5-((5-(2-ethyl-2H-tetrazole-5-yl)pyridine-2-yl)-oxy)-3,3-amyldimethyl)-1,2,5-thiadiazolidin 1,1-dioxide hydrochloride], the “Dissolution of compound A” value is given as “complete dissolution”.
